For assay [1], the target named is T1, Adenosine receptor A1 (Rattus norvegicus, UniProt P25099).
T1 sequence (P25099 whole entry): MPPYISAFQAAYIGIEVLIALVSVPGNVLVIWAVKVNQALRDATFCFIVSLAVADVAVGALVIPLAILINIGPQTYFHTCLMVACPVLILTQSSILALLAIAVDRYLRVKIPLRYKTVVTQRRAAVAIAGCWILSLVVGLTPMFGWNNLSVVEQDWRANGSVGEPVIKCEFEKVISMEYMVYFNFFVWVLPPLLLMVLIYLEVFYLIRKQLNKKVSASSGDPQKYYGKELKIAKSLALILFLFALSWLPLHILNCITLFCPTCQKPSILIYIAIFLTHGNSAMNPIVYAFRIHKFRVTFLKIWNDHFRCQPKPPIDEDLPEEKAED
The assay can be described thus: Binding affinity for Adenosine A1 receptor using [3H]- CHA or [3H]- PIA.

The target of assay [2] is T1, Adenosine receptor A1. The assay can be described thus: Binding affinity for adenosine A1 receptor using [3H]- CHA or [3H]- PIA antagonism of adenylate cyclase inhibition in rat adipocytes. Format: cell-based.
The target in assay [3] is T2, Adenosine A2 receptor (Homo sapiens, UniProt P29275+P29274). The assay can be described thus: Binding affinity for adenosine A2 receptor using [3H]- NECA antagonism of adenylate cyclase activation in human platelets.
For assay [4], the target named is Adenosine A2 receptor (Rattus norvegicus, UniProt P29276+P30543). The assay can be described thus: Binding affinity for adenosine A2 receptor using [3H]- NECA. Format: protein assay.
The target of assay [5] is T1, Adenosine receptor A1.
Assay [6] has as its target Adenosine A2 receptor (Rattus norvegicus) (UniProt P29276+P30543). The assay can be described thus: Binding affinity for Adenosine A2 receptor using [3H]- NECA. Format: protein assay.
The test system of assay [7] is Adenosine receptors; A1 & A2 (Rattus norvegicus). The assay can be described thus: Ratio of adenosine A2 to A1 receptor binding.
For assay [8], the target named is T2, Adenosine A2 receptor. The assay can be described thus: Binding affinity for adenosine A2 receptor using [125I]PAPA-APEC in bovine striatum. Format: tissue-based. As to conditions: Bos taurus, target entry is the homologue from another species.
The target in assay [9] is T3, Adenosine receptor A1 (Bos taurus, UniProt P28190).
T3 sequence (P28190 whole entry): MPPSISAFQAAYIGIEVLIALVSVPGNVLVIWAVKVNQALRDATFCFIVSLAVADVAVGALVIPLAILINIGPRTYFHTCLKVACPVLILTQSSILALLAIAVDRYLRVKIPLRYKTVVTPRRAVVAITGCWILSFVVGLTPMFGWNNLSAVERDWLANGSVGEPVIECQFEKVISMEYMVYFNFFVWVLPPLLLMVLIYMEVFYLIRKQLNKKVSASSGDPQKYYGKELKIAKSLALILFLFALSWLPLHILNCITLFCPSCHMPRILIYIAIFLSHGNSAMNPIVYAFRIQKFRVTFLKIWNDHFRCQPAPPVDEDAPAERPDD
The assay can be described thus: Binding affinity for adenosine A1 receptor using [3H]- CHA or [3H]- PIA in bovine brain cortical membranes. Format: cell membranes.

For assay [10], the target named is T3, Adenosine receptor A1. The assay can be described thus: Binding affinity for adenosine A1 receptor using [3H]- CHA or [3H]- PIA in bovine brain.
The target in assay [11] is T2, Adenosine A2 receptor. The assay can be described thus: Binding affinity for adenosine A2 receptor using [3H]- NECA in bovine brain. As to conditions: Bos taurus; target entry is the homologue from another species.

This note sets out measurements from ChEMBL document CHEMBL1125572, “Adenosine receptors: pharmacology, structure-activity relationships, and therapeutic potential” (J Med Chem, 1992).

As a reminder, the Ki is the dissociation constant of the complex between target and ligand, obtained from inhibition or displacement. The low end stands for higher affinity, the high end for lower affinity. As to `O=C(Cc1ccc(NC(=O)Cc2ccc(Nc3ncnc4c3ncn4C3O[C@H](CO)[C@@H](O)[C@H]3O)cc2)cc1)NCC/N=C(/S)Nc1ccc2c(c1)C(=O)OC21c2ccc(O)cc2Oc2cc(O)ccc21` (stereo partly specified), affinity at Adenosine receptor A1 [1] was put at a Ki of 7.1 nM. This counts as single-digit nanomolar.

On to `CCCn1c(=O)c2nc([C@H]3CC[C@H](CNC(C)=O)CC3)[nH]c2n(CCC)c1=O`, for which the Ki stood at 8 nM on Adenosine receptor A1 [2] and 20 nM on Adenosine A2 receptor [3].

In the case of `CCNC(=O)[C@H]1O[C@@H](n2cnc3c(N)nc(NCCc4ccc(CCC(=O)NCCN)cc4)nc32)[C@H](O)[C@@H]1O`, the figures for the Ki on Adenosine A2 receptor [4] and on Adenosine receptor A1 [5] were 5.7 nM and 240 nM, respectively.

For the compound `Cc1c(C)n([C@H](C)Cc2ccccc2)c2nc(-c3ccccc3)nc(N)c12`, on Adenosine receptor A1 [5], the Ki amounted to 4.7 nM.

On to `OCCCNc1ncnc2c1ncn2C1O[C@H](CO)[C@@H](O)[C@H]1O` (stereo partly specified), for which the Ki was 7 nM on Adenosine receptor A1 [1] and 4920 nM in assay [6]. The Ratio in [7] stood at 700.

In turn, `OC[C@H]1O[C@@H](n2cnc3c(NCCc4ccccc4)ncnc32)[C@H](O)[C@@H]1O` gave a Ki at Adenosine receptor A1 [1] of 4.1 nM.

`Nc1ccc(CNc2ncnc3c2ncn3C2O[C@H](CO)[C@@H](O)[C@H]2O)cc1I` (stereo partly specified) yielded an inhibitory constant (Ki) on Adenosine receptor A1 [1] of 0.7 nM.

Consider `OC[C@H]1O[C@@H](n2cnc3c(Nc4ccccc4)ncnc32)[C@H](O)[C@@H]1O`, for which the affinity in assay [6], expressed as Ki, was 663 nM.

Compound `FC(F)(F)c1nnc2c(NC3CCCC3)nc3ccc(Cl)cc3n12` registered a Ki at Adenosine receptor A1 [5] of 28 nM.

For the compound `CCCCC#Cc1nc(N)c2ncn([C@@H]3O[C@H](CO)[C@@H](O)[C@H]3O)c2n1`, the inhibition constant Ki at Adenosine receptor A1 [5] is 147 nM.

Turning to `CCNC(=O)[C@H]1OC(n2cnc3c(N)nc(NCCc4ccc(CCC(=O)NCCNC(=O)Cc5ccc(N)c(I)c5)cc4)nc32)[C@H](O)[C@@H]1O` (stereo partly specified), on Adenosine A2 receptor [4], the Ki is 1 nM.

For `Nc1nc(-c2ccccc2)nc2c1cnn2-c1ccccc1`, the inhibitory constant (Ki) at Adenosine receptor A1 [5] stood at 23 nM.

For `CCCCCCC#Cc1nc(N)c2ncn([C@@H]3O[C@H](CO)[C@@H](O)[C@H]3O)c2n1`, the affinity on Adenosine receptor A1 [5] corresponds to a Ki of 211 nM.

On Adenosine receptor A1 [5], `Nc1nc(NCCC2C=CCCC2)nc2c1ncn2C1O[C@H](CO)[C@@H](O)[C@H]1O` (stereo partly specified) showed a Ki of 2700 nM.

As for `Cc1ccc(CCOc2nc(N)c3ncn(C4O[C@@H](CO)[C@H](O)[C@@H]4O)c3n2)cc1` (stereo partly specified), the Ki on Adenosine receptor A1 [5] turned out to be 48 nM.

For the compound `Nc1ccc(CCNc2ncnc3c2ncn3C2O[C@H](CO)[C@@H](O)[C@H]2O)cc1I` (stereo partly specified), on Adenosine receptor A1 [1], the Ki came to 2 nM.

`CCNC(=O)[C@H]1OC(n2cnc3c(N)nc(NCCc4ccc(CCC(=O)NCC/N=C(\S)Nc5ccc(N=C=S)cc5)cc4)nc32)[C@H](O)[C@@H]1O` (stereo partly specified): the Ki on Adenosine A2 receptor [8] came to 7.1 nM; at Adenosine receptor A1 [5], 280 nM.

On Adenosine receptor A1 [5], `Oc1cccc(C2=CSC3=Nc4ccccc4CN23)c1` returned a Ki of 3100 nM. This counts as single-digit micromolar.

The compound `CCCn1c(=O)c2nc(-c3ccc(OCC(=O)NCCNC(=O)CCc4ccc(N)c(I)c4)cc3)[nH]c2n(CCC)c1=O` yielded a Ki at Adenosine receptor A1 [9] of 0.1 nM.

The compound `C#CCn1c(=O)c2c(ncn2C)n(C)c1=O` gave a Ki on Adenosine receptor A1 [5] of 22000 nM.

On to `Cn1c(=O)c2c(nc(C3CCCCC3)n2C)n(C)c1=O`, for which the inhibitory constant (Ki) on Adenosine A2 receptor [3] is listed as 0.19 nM.

In the case of `CCCn1c(=O)c2nc(C3CCCC3)[nH]c2n(CCc2ccc(N)c(I)c2)c1=O`, the affinity on Adenosine receptor A1 [5], expressed as Ki, was 0.23 nM. In other words, the sub-nanomolar range.

In the case of `Cn1cnc2c(NC3CC4CCC3C4)ncnc21` (stereo unspecified), the inhibitory constant (Ki) was 10 nM on Adenosine receptor A1 [10] and 6100 nM at Adenosine A2 receptor [11].

Consider `Nc1nc(OCCC2CCCCC2)nc2c1ncn2C1O[C@@H](CO)[C@H](O)[C@@H]1O` (stereo partly specified), for which the affinity at Adenosine receptor A1 [5] corresponds to a Ki of 1500 nM.

Turning to `Nc1nc2ccc(Cl)cc2n2c(-c3ccccc3)nnc12`, the affinity at Adenosine receptor A1 [5] corresponds to a Ki of 270 nM.

For `CCCn1c(=O)c2[nH]c(C3CCC(=O)C3)nc2n(CCC)c1=O` (stereo unspecified), the Ki on Adenosine receptor A1 [5] is 10.5 nM.

In the case of `CCCCCCCCCCCCCCCCCC(=O)NCCNC(=O)Cc1ccc(NC(=O)Cc2ccc(Nc3ncnc4c3ncn4C3O[C@H](CO)[C@@H](O)[C@H]3O)cc2)cc1` (stereo partly specified), the values for the Ki (on Adenosine receptor A1 [1]; in [6]) were 0.22 nM and 8400 nM, respectively. Also, the Ratio in assay [7] was determined as 38000.

On to `C[C@H](Cc1ccc(O)c(I)c1)Nc1ncnc2c1ncn2[C@@H]1O[C@H](CO)[C@@H](O)[C@H]1O`, for which affinity on Adenosine receptor A1 [1] was put at a Ki of 0.94 nM.
